Like-named read-outs stand apart in the source and are kept apart here.
Key:
[1] = Evaluation of solubility in specific solvents at 30° C.; assay type: physicochemical
Procedure: The oligothiophene A (hexamer) was dissolved in each of toluene, xylene, ethylbenzene, mesitylene, cyclopentanone, cyclohexanone, methyl chloride, carbon tetrachloride, chlorobenzene, dichlorobenzene, trichlorobenzene, nitrobenzene, methyl ethyl ketone, benzoic acid esters, anisole, phenetole, butyl phenyl ether, methoxytoluene, and benzyl ethyl ether at 30° C., and each solubility was determined. […] In Table 1, the mark o indicates the case where the solubilities of 0.1% by weight and 0.3% by weight for each solvent were observed, and the mark X indicates the other case.

[2] = Evaluation of ionization potential of film by photoelectron spectrometer; assay type: physicochemical; settings: film spin-coated from chloroform on quartz substrate (α-6T: film deposited under vacuum); solid state
Procedure: The ionization potential is preferably determined by the method of measuring a sample in a solid state through photoelectron spectroscopy. Examples of the simple devices include a photoelectron spectrometer, model AC-1 (or its successor device) available from Riken Keiki Co., Ltd.
The oligothiophene A (hexamer) (50 mg) prepared in Synthesis 4 was dissolved in chloroform (1 mL) to prepare a solution. This solution was spin-coated on a 2.5 by 2.5 cm^2 quartz substrate available from Furuuchi Chemical Corporation at 1000 rpm. A satisfactory film was produced. The ionization potential (Ip) of this film was determined with a photoelectron spectrometer Model PCR-101 available from Sumitomo Heavy Industries Advanced Machinery. As a reference, an α-6T film deposited on a quartz substrate under vacuum was used (See Comparative Example 1 described below). FIG. 4 is a graph of the ionization potentials observed. The ionization potential (Ip) of the oligothiophene A (hexamer) was 5.34 eV, while that of α-6T was 4.7 eV.

[3] = Evaluation of crystallinity of film by X-ray diffractometry; assay type: physicochemical; settings: for Crystallinity of Film: In-Plane X-ray diffractometry of film
Procedure: X-ray diffractometry was conducted for the oligothiophene film formed of the oligothiophene A (hexamer) prepared in [Evaluation of Ionization Potential] using a RINT-2000/PC available from Rigaku Corporation.

[4] = usual value of representative thiophene materials; cited from earlier work
[5] = 30° C., toluene, xylene, ethylbenzene, mesitylene, cyclopentanone, cyclohexanone and other listed solvents

SMILES	Solubility in Specific Solvents 0.1% by weight [1, 5]	Solubility in Specific Solvents 0.3% by weight [1, 5]	Ionization Potential [2] [eV]	Crystallinity of Film [3]	Crystallinity of film (in words) ([3]; In-Plane X-ray diffractometry of spin-coated film)	Solubility in Specific Solvents 0.1% by weight [1]	Solubility in Specific Solvents 0.3% by weight [1]	ionization potential (Ip) [4]
CCCCCCc1ccc(-c2ccc(-c3sc(-c4cc(-c5ccc(CC)cc5)c(-c5ccc(-c6ccc(CCCCCC)s6)s5)s4)cc3-c3ccc(CC)cc3)s2)s1 [Example 1]	◯	◯	5.34	◯	crystalline semiconductor layer			
CCCCCCc1ccc(-c2ccc(-c3ccc(-c4sc(-c5cc(-c6ccc(CC)cc6)c(-c6ccc(-c7ccc(-c8ccc(CCCCCC)s8)s7)s6)s5)cc4-c4ccc(CC)cc4)s3)s2)s1 [Example 2]			5.24	◯		◯	◯	
CCCCCCc1ccc(-c2ccc(-c3ccc(-c4ccc(-c5sc(-c6cc(-c7ccc(CC)cc7)c(-c7ccc(-c8ccc(-c9ccc(-c%10ccc(CCCCCC)s%10)s9)s8)s7)s6)cc5-c5ccc(CC)cc5)s4)s3)s2)s1 [Example 3]			5.26	◯		◯	◯	
CCCCCCc1ccc(-c2ccc(-c3ccc(-c4ccc(-c5sc(-c6ccc(CCCCCC)s6)cc5-c5ccc(CC)cc5)s4)s3)s2)s1 [Example 5]			5.24	◯		◯	◯	
CCCCCCc1ccc(-c2ccc(-c3ccc(-c4ccc(-c5ccc(-c6sc(-c7cc(-c8ccc(CC)cc8)c(-c8ccc(-c9ccc(-c%10ccc(-c%11ccc(-c%12ccc(CCCCCC)s%12)s%11)s%10)s9)s8)s7)cc6-c6ccc(CC)cc6)s5)s4)s3)s2)s1 [Example 6]	◯	◯	5.18	◯				
CCCCCCc1ccc(-c2cc(-c3ccc(CC)cc3)c(-c3ccc(-c4ccc(-c5ccc(-c6sc(-c7cc(-c8ccc(CC)cc8)c(-c8ccc(-c9ccc(-c%10ccc(-c%11sc(-c%12ccc(CCCCCC)s%12)cc%11-c%11ccc(CC)cc%11)s%10)s9)s8)s7)cc6-c6ccc(CC)cc6)s5)s4)s3)s2)s1 [Example 7]			5.46	◯		◯	◯	
c1csc(-c2ccc(-c3ccc(-c4ccc(-c5ccc(-c6cccs6)s5)s4)s3)s2)c1 [α-6T, α-sezithiophene, reference compound]			4.7	◯		◯	◯	about 4.7 eV
